Assay: mn = molality of the nth substance listed, in mol/kg
Details: 100 kPa, Liquid; for speed of sound: Frequency=3 MHz, Sing-around technique in a fixed-path interferometer; for mass density: Vibrating tube method

O=C([O-])CC(O)(CC(=O)[O-])C(=O)[O-].[K+].[K+].[K+] [potassium citrate] + O
Details | mass density, 288.15 K [kg/m3] | mass density, 298.15 K [kg/m3] | mass density, 308.15 K [kg/m3] | mass density, 318.15 K [kg/m3] | speed of sound, 288.15 K [m/s] | speed of sound, 298.15 K [m/s] | speed of sound, 308.15 K [m/s] | speed of sound, 318.15 K [m/s]
m1 = 0.2 | 1036.81 | 1034.22 | 1030.82 | 1026.73 | 1505.5 | 1533 | 1553.9 | 1568.9
m1 = 0.4 | 1073.44 | 1070.41 | 1066.68 | 1062.34 | 1544.3 | 1569.1 | 1587.9 | 1601.3
m1 = 0.6 | 1128.01 | 1124.42 | 1120.28 | 1115.69 | 1604 | 1625.9 | 1641.7 | 1652.5
